According to patent US11878973B2, “Bicyclic compounds and their uses” (NOVARTIS AG, priority 2021, dated 2024):
Like-named read-outs stand apart in the source and are kept apart here.

Legend:
DLD1-WRN-KO cells = test: Proliferation assay DLD1-WRN-KO (CellTiterGlo, 96 hours; off-target effects); details: read-out: Proliferation Assay DLD1-WRN-KO (GI50)
SW48 cells = test: Proliferation assay SW48 (CellTiterGlo, 96 hours)
Procedure: The WRN-knockdown insensitive colon carcinoma cell line DLD-1 (RRID: CVCL_0248) was obtained from the Korean Cell Line Bank (KCLB), and used to generate a derivative in which the endogenous WRN gene copies were knocked out by CRISPR-mediated editing using standard CRISPR methods. The resulting cell line, DLD1-WRN—KO, was used to assess potential off-target compound effects.
All cells were maintained at 37° C. in a humidified 5% CO2 incubator.
For data analysis, the assay background signal that was determined in wells containing medium, but no cells, was subtracted from all other data points prior to further calculations. The extent of growth inhibition and potential cell kill was assessed by comparing the ATP levels (measured using CellTiterGlo, Promega) in compound-treated cells with those present at the time of compound addition. […] 100%, 0% and −100% signify absence of growth inhibition, growth stasis, and complete cell kill, respectively. Compound concentrations leading to half-maximal growth inhibition (G150) and residual cell viability at the highest tested compound concentration (Data (cmax), expressed in percent) were routinely calculated. Data analysis can also be carried out using commercially available software designed to derive IC50 values using 4-parameter fits (e.g. GraphPad Prism, XL fit). The reported GI50 values are the geometrical means of at least 2 independent replicates.

WRN helicase = WRN helicase (Homo sapiens (Human), UniProt Q14191); test: In vitro enzymatic activity assay on WRN helicase (DNA dependent ATPase assay, ADP-Glo); type: biochemical; details: geometric means of at least 2 determinations; read-out: WRN ATPase Activity (IC50)
Procedure, shortened: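 DNA-dependent ATPase activity was measured by ADP-Glo luminescent ADP detection after a 30-min room-temperature reaction. The reaction contained 10 nM WRN (residues N517-P1238), 0.2 nM FLAP26 and 300 µM ATP at pH 7.5 with 2 mM MgCl2. Compounds were tested as 10-point half-log series in duplicate; IC50 values are geometric means from at least two independent experiments.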

[1] = Homo sapiens, SW48, read-out: Proliferation Assay SW48 (GI50)
[2] = DLD1-WRN-KO cell line, geometric means of at least 2 determinations
[3] = read-out: Proliferation Assay SW48 (GI50), SW48 cell line, geometric means of at least 2 determinations

Chain of WRN helicase (Q14191 517-1238): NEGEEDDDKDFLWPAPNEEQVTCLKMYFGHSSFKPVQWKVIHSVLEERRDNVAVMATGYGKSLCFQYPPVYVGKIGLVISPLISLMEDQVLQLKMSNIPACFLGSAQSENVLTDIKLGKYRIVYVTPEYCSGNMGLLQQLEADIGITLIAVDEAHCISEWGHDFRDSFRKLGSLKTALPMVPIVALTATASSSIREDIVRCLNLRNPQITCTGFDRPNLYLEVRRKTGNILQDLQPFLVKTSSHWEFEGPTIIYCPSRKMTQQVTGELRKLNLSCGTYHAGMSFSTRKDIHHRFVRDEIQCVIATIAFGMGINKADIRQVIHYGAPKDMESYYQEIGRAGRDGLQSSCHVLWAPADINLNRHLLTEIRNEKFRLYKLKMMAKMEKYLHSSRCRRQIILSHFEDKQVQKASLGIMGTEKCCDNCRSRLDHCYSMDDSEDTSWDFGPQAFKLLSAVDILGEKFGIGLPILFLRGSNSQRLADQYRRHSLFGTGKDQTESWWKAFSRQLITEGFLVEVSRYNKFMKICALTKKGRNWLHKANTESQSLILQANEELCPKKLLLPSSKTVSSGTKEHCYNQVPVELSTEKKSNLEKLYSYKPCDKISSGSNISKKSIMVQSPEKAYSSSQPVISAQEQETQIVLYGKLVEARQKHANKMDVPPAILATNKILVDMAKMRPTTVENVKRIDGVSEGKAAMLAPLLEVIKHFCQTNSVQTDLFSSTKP

GI50 (DLD1-WRN-KO cells; Homo sapiens) [µM]	GI50 (SW48 cells; [1]) [nM]	IC50 (WRN helicase) [nM]	GI50 (DLD1-WRN-KO cells; [2]) [µM]	GI50 (SW48 cells; [3]) [nM]	Structure (SMILES)
> 10	240	140			CCc1c(N2CCN(C(=O)c3ncccc3O)CC2)c(=O)n2nc(N3CCCC3)nc2n1CC(=O)Nc1ccc(C(F)(F)F)cc1C [Example 17, 2-(5-ethyl-6-(4-(3-hydroxypicolinoyl)piperazin-1-yl)-7-oxo-2-(pyrrolidin-1-yl)-[1,2,4]triazolo[1,5-a]pyrimidin-4(7H)-yl)-N-(2-methyl-4-(trifluoromethyl)phenyl)acetamide]
> 10	930	470			CCc1c(N2CCN(C(=O)c3ncnc(C)c3O)[C@@H](C)[C@@H]2C)c(=O)n2nc(C3=CCOCC3)nc2n1CC(=O)Nc1ccc(C(F)(F)F)cc1Cl [Example 120, N-(2-chloro-4-(trifluoromethyl)phenyl)-2-(2-(3,6-dihydro-2H-pyran-4-yl)-5-ethyl-6-((2S,3S)-4-(5-hydroxy-6-methylpyrimidine-4-carbonyl)-2,3-dimethylpiperazin-1-yl)-7-oxo-[1,2,4]triazolo[1,5-a]pyrimidin-4(7H)-yl)acetamide]
> 10	80	130			CCc1c(N2CCN(C(=O)c3ncccc3O)CC2)c(=O)n2nc(C3=CCOCC3)nc2n1CC(=O)Nc1ccc(C(F)(F)F)nc1Cl [Example 45, N-(2-chloro-6-(trifluoromethyl)pyridin-3-yl)-2-(2-(3,6-dihydro-2H-pyran-4-yl)-5-ethyl-6-(4-(3-hydroxypicolinoyl)piperazin-1-yl)-7-oxo-[1,2,4]triazolo[1,5-a]pyrimidin-4(7H)-yl)acetamide]
> 10	120	40			CCc1c(N2CCN(C(=O)c3ncccc3O)CC2)c(=O)n2nc(C3=COCCO3)nc2n1CC(=O)Nc1ccc(C(F)(F)F)cc1C [Example 113, 2-(2-(5,6-dihydro-1,4-dioxin-2-yl)-5-ethyl-6-(4-(3-hydroxypicolinoyl)piperazin-1-yl)-7-oxo-[1,2,4]triazolo[1,5-a]pyrimidin-4(7H)-yl)-N-(2-methyl-4-(trifluoromethyl)phenyl)acetamide]
> 10	400	190			CCc1c(N2CCN(C(=O)c3ncccc3O)CC2)c(=O)n2nc(C3=CCOCC3)nc2n1CC(=O)Nc1ccc(C(F)(F)F)nc1C [Example 35, 2-(2-(3,6-dihydro-2H-pyran-4-yl)-5-ethyl-6-(4-(3-hydroxypicolinoyl)piperazin-1-yl)-7-oxo-[1,2,4]triazolo[1,5-a]pyrimidin-4(7H)-yl)-N-(2-methyl-6-(trifluoromethyl)pyridin-3-yl)acetamide]
> 10	50	50			CCc1c(N2CCN(C(=O)c3nccc(Cl)c3O)CC2)c(=O)n2nc(C3=CCOCC3)nc2n1CC(=O)Nc1ccc(C(F)(F)F)cc1C [Example 61, 2-(6-(4-(4-chloro-3-hydroxypicolinoyl)piperazin-1-yl)-2-(3,6-dihydro-2H-pyran-4-yl)-5-ethyl-7-oxo-[1,2,4]triazolo[1,5-a]pyrimidin-4(7H)-yl)-N-(2-methyl-4-(trifluoromethyl)phenyl)acetamide]
> 10	100	50			CCc1c(N2CCN(C(=O)c3ncnc(C)c3O)CC2)c(=O)n2nc(C3=CCOCC3)nc2n1CC(=O)Nc1ccc(C(F)(F)F)cc1F [Example 107, 2-(2-(3,6-dihydro-2H-pyran-4-yl)-5-ethyl-6-(4-(5-hydroxy-6-methylpyrimidine-4-carbonyl)piperazin-1-yl)-7-oxo-[1,2,4]triazolo[1,5-a]pyrimidin-4(7H)-yl)-N-(2-fluoro-4-(trifluoromethyl)phenyl)acetamide]
> 10	300	130			Cc1ccnc(C(=O)N2CCN(c3c(C)n(CC(=O)Nc4ccc(C(F)(F)F)cc4)c4nc(C5=CCOCC5)nn4c3=O)CC2)c1O [Example 90, 2-(2-(3,6-dihydro-2H-pyran-4-yl)-6-(4-(3-hydroxy-4-methylpicolinoyl)piperazin-1-yl)-5-methyl-7-oxo-[1,2,4]triazolo[1,5-a]pyrimidin-4(7H)-yl)-N-(4-(trifluoromethyl)phenyl)acetamide]
> 10	60	110			CCc1c(N2CCN(C(=O)c3ncnc(C)c3O)C[C@@H]2C)c(=O)n2nc(C3=CCOCC3)nc2n1CC(=O)Nc1ccc(C(F)(F)F)cc1Cl [Example 87, (S)—N-(2-chloro-4-(trifluoromethyl)phenyl)-2-(2-(3,6-dihydro-2H-pyran-4-yl)-5-ethyl-6-(4-(5-hydroxy-6-methylpyrimidine-4-carbonyl)-2-methylpiperazin-1-yl)-7-oxo-[1,2,4]triazolo[1,5-a]pyrimidin-4(7H)-yl)acetamide]
> 10	80	50			CCc1c(N2CCN(C(=O)c3nccc(C)c3O)CC2)c(=O)n2nc(C3=CCOCC3)nc2n1CC(=O)Nc1ccc(C(F)(F)F)cc1 [Example 75, 2-(2-(3,6-dihydro-2H-pyran-4-yl)-5-ethyl-6-(4-(3-hydroxy-4-methylpicolinoyl)piperazin-1-yl)-7-oxo-[1,2,4]triazolo[1,5-a]pyrimidin-4(7H)-yl)-N-(4-(trifluoromethyl)phenyl)acetamide]
		860	> 10	1740	CCc1c(N2CCN(C(=O)c3ncnc(C)c3O)[C@@H](C)[C@H]2C)c(=O)n2nc(C3=CCOCC3)nc2n1CC(=O)Nc1ccc(C(F)(F)F)cc1Cl (single isomer, unassigned) [Example 121]
> 10	60	40			CCc1c(N2CCN(C(=O)c3ncccc3O)CC2)c(=O)n2nc(N3CCOCC3)nc2n1CC(=O)Nc1cc(Cl)c(C(F)(F)F)cc1C [Example 4, N-(5-chloro-2-methyl-4-(trifluoromethyl)phenyl)-2-(5-ethyl-6-(4-(3-hydroxypicolinoyl)piperazin-1-yl)-2-morpholino-7-oxo-[1,2,4]triazolo[1,5-a]pyrimidin-4(7H)-yl)acetamide]
> 10	100	130			CCc1c(N2CCN(C(=O)c3ncnc(C)c3O)CC2)c(=O)n2nc(C3=CCCCO3)nc2n1CC(=O)Nc1ccc(C(F)(F)F)nc1Cl [Example 28, N-(2-chloro-6-(trifluoromethyl)pyridin-3-yl)-2-(2-(3,4-dihydro-2H-pyran-6-yl)-5-ethyl-6-(4-(5-hydroxy-6-methylpyrimidine-4-carbonyl)piperazin-1-yl)-7-oxo-[1,2,4]triazolo[1,5-a]pyrimidin-4(7H)-yl)acetamide]
> 10	650	80			Cc1c(C2CCN(C(=O)c3ncccc3O)CC2)c(=O)n2nc(C3=CCOCC3)nc2n1CC(=O)Nc1ccc(C(F)(F)F)cc1 [Example 136, 2-(2-(3,6-dihydro-2H-pyran-4-yl)-6-(1-(3-hydroxypicolinoyl)piperidin-4-yl)-5-methyl-7-oxo-[1,2,4]triazolo[1,5-a]pyrimidin-4(7H)-yl)-N-(4-(trifluoromethyl)phenyl)acetamide]
> 10	270	70			CCc1c(N2CCN(C(=O)c3nccc(Cl)c3O)CC2)c(=O)n2nc(N3CCOCC3)nc2n1CC(=O)Nc1cc(F)c(C(F)(F)F)cc1C [Example 6, 2-(6-(4-(4-chloro-3-hydroxypicolinoyl)piperazin-1-yl)-5-ethyl-2-morpholino-7-oxo-[1,2,4]triazolo[1,5-a]pyrimidin-4(7H)-yl)-N-(5-fluoro-2-methyl-4-(trifluoromethyl)phenyl)acetamide]
		40	> 10	60	CCc1c(N2CCN(C(=O)c3ncccc3O)CC2)c(=O)n2nc(C3=CC[C@H](OC)CC3)nc2n1CC(=O)Nc1ccc(C(F)(F)F)cc1 (single isomer, unassigned) [Example 81b, ((R)-2-(5-ethyl-6-(4-(3-hydroxypicolinoyl)piperazin-1-yl)-2-(4-methoxycyclohex-1-en-1-yl)-7-oxo-[1,2,4]triazolo[1,5-a]pyrimidin-4(7H)-yl)-N-(4-(trifluoromethyl)phenyl)acetamide or ((S)-2-(5-ethyl-6-(4-(3-hydroxypicolinoyl)piperazin-1-yl)-2-(4-methoxycyclohex-1-en-1-yl)-7-oxo-[1,2,4]triazolo[1,5-a]pyrimidin-4(7H)-yl)-N-(4-(trifluoromethyl)phenyl)acetamide]
> 10	40	40			CCc1c(N2CCN(C(=O)c3nc(C)cc(F)c3O)CC2)c(=O)n2nc(C3=CCOCC3)nc2n1CC(=O)Nc1ccc(C(F)(F)F)cc1Cl [Example 41, N-(2-chloro-4-(trifluoromethyl)phenyl)-2-(2-(3,6-dihydro-2H-pyran-4-yl)-5-ethyl-6-(4-(4-fluoro-3-hydroxy-6-methylpicolinoyl)piperazin-1-yl)-7-oxo-[1,2,4]triazolo[1,5-a]pyrimidin-4(7H)-yl)acetamide]
> 10	160	140			CCc1c(N2CCN(C(=O)c3nccc(Cl)c3O)CC2)c(=O)n2nc(C3=CCCCO3)nc2n1CC(=O)Nc1ccc(C(F)(F)F)nc1Cl [Example 30, 2-(6-(4-(4-chloro-3-hydroxypicolinoyl)piperazin-1-yl)-2-(3,4-dihydro-2H-pyran-6-yl)-5-ethyl-7-oxo-[1,2,4]triazolo[1,5-a]pyrimidin-4(7H)-yl)-N-(2-chloro-6-(trifluoromethyl)pyridin-3-yl)acetamide]
